System: rFpr1, rFpr2 expression in NRCM
Experiment: Fpr gene expression in neonatal rat cardiomyocytes (real-time PCR)
Type: cell-based
Conditions: 1 μM, 48 h incubation
Experimental: Isolation and culture of primary rat cardiomyocytes and mouse cardiac fibroblasts: All materials used for cell isolation were of tissue culture grade. Isolation of primary neonatal rat cardiac cardiomyocytes (NRCM) and adult mouse cardiac fibroblasts (AMCF) was performed by serial enzymatic digestion, as previously described (Irvine et al 2012 & Irvine et al. 3) NRCM were plated onto either 12-well tissue culture plates (for simulated ischemia-reperfusion, via hypoxia-reoxygenation, H-R) or 60 mm tissue culture dishes (for gene expression) at a density of 1.3×10^5 cells/cm^2, in the presence of 1% 5-bromo-2′-deoxyuridine. AMCF (passage #3) were seeded onto 60 mm tissue culture dishes at 9.5×10^4 cells/cm^2 and allowed to grow to 80% confluence prior to study. Following 48 h in serum-free DMEM, NRCM in 12-well tissue plates were subjected to simulated ischemia, induced by replacement of culture media with sterile-filtered Kreb's buffer (118 mM NaCl, 4.8 mM KCl, 1.2 mM KH2PO4, 1.2 mM MgSO4, 25 mM NaHCO3, […], 11.0 mM glucose, 1.75 mM CaCl2) prior to incubation for 6 h at 37° C. under hypoxia (95% N2-5% CO2, using a hypoxia chamber, QNA International, Melbourne, Australia). At the end of hypoxia, Kreb's buffer was replaced with fresh, sterile-filtered Kreb's buffer, in the presence or absence of FPR agonists Cmpd17b, Cmpd43 (both 1 μM or vehicle, and NRCM were subjected to 48 h reoxygenation at 37° C. At the end of 48 h reoxygenation, NRCM supernatant was collected for assessment of cardiomyocyte injury. Cardiomyocyte release of cTnI was determined using a commercially available, high-sensitivity rat cTnI ELISA kit (Life Diagnostic Inc.) as per the manufacturer's instructions. Separate NRVM on 60 mm dishes were incubated for 48 h at 37° C. in serum-free DMEM, in the presence or absence of FPR agonists Cmpd17b, Cmpd43 (both 1 μM) or vehicle. At the end of 48 h, RNA was extracted and real-time PCR performed (as described previously (Huynh et al. 2012)), to determine the relative gene expression of rat Fprs (rFpr1, rFpr2 and rFpr3, expressed as the threshold cycle number Ct subtracted from the maximum cycle number utilized, 40).

## COc1cccc(Cc2cc(C)nn(C(C)C(=O)Nc3ccc(Br)cc3)c2=O)c1 (stereo not shown) [BIDI-001, N-(4-bromophenyl)-2-[5-(3-methoxybenzyl)-3-methyl-6-oxo-6H-pyridazin-1-yl]-propionamide]
  NRCM expression of rFpr1: did not significantly influence
  NRCM expression of rFpr2: did not significantly influence

## CC(C)C1C(NC(=O)Nc2ccc(Cl)cc2)C(=O)N(c2ccccc2)N1C (stereo not shown) [BIDI-002]
  NRCM expression of rFpr1: without impact
  NRCM expression of rFpr2: tended to reduce

From patent US10328075B2, “Method of treatment and compounds for use therein” (Baker Heart and Diabetes Institute, priority 2015, dated 2019)
